Where two headings read alike, the source gives them in different places.
Key:
[1] = Rat pharmacokinetic studies; format: in vivo, male SD rats; parameters: AUClast/D: unit not given here; settings: for AUC(0-t) / AUC(0-inf) / C0 / half-life / MRT inf / Vd / Cmax / Tmax: male, SD; for MRT inf: read-out: MRTInf—obs; for Vd: read-out: Vss—obs
Method: (§1) The rat pharmacokinetics studies of exemplary compounds 03-3, 03-5, and 03-115 were conducted with male SD rats. These rats were typically about 6-8 weeks old, weighing 200 g to 300 g. Animals were fasted overnight and free access to food 4 hours after dosing. A required volume of vehicle was added to reach the target concentration of the test article and vehicle component to prepare for the dosing. The dosing vehicle was PEG400 or 30% PEG400 in saline for IV, or 0.5% methylcellulose in water for PO. For IV dosing, the animals were administered intravenously via tail vein. For PO dosing, the animals were administered via oral gavage. After dosing, blood sample was collected (˜0.2 mL per time point) through jugular vein or heart puncture. Blood of each sample was transferred into plastic micro centrifuge tubes containing EDTA-K2. Collection tubes with blood samples and anticoagulant were inverted several times for proper mixing of the tube contents and then placed on wet ice. The blood samples were centrifuged at 2000 g for 5 minutes at 4° C. to obtain plasma which was stored in a freezer at −75±15° C. prior to analysis. Samples were analyzed using LC-MS/MS. WinNonlin were used for pharmacokinetic calculations.

[2] = Mouse CNS exposure measurement (plasma, CSF, brain); format: in vivo, male C57BL/6J mice; settings: male, C57BL/6J; for concentration at 100 min: PO 5 mg/kg; for concentration at 60 min: in vivo, sc, 1 mg/kg, SC 1 mg/kg
Method: as §1, with “These” for “The rat pharmacokinetics studies of exemplary compounds 03-3, 03-5, and 03-115 were conducted with male SD rats. These”
For CSF sampling, after anesthesia, the foramen magnum was exposed, and a syringe was used with a venoclysis needle to sample the CSF. The CSF samples were stored in polypropylene tubes, then stored in a freezer at −75±15° C. prior to analysis.
For brain sampling, the rats were fully exsanguinated by using a risen of carbon dioxide prior to brain collection. Brain samples were then collected at adopted time point, quick frozen and kept at −75±15° C. All brain samples were weighted and homogenated with PBS by brain weight (g) to PBS volume (mL) ratio 1:3 before analysis. The actual concentration is the detected value multiplied by the dilution factor.
These mice were typically about 6-8 weeks old, weighing 20 g to 30 g. Animals were free access to food before dosing. Sample amount was ˜0.03 mL per time point and sample site was dorsal metatarsal or heart puncture.

[3] = Hepatocyte stability (dog); format: in vitro ADME; settings: 0.5×10^6 viable cells/mL
Method: 10 mM and 100 μM stock solutions of test compound(s) and a positive control were prepared in appropriate solvent (DMSO). In separate conical tubes, the 10 mM test compound and the positive control were diluted to 100 μM by combining 198 μL of 50% acetonitrile/50% water and 2 μL of 10 mM stock. The 100 μM test compound and the positive control were diluted to 30 μM by combining 140 μL of 50% acetonitrile/50% water and 60 μL of 100 μM stock solution. The 100 μM test compound and the positive control were diluted to 10 μM by combining 180 μL of 50% acetonitrile/50% water and 20 μL of 100 μM stock solution. The 100 μM test compound and the positive control were diluted to 3 μM by combining 194 μL of 50% acetonitrile/50% water and 6 μL of 100 μM stock solution.
Incubation medium (William's E Medium supplemented with GlutaMAX) and hepatocyte thawing medium was placed in a 37° C. water bath, and allowed to warm for at least 15 minutes prior to use. A vial of cryopreserved hepatocytes from storage was then removed, ensuring that the vial remains at cryogenic temperatures until thawing process ensues. Cells were thawed by placing the vial in a 37° C. water bath and gently shaking the vial for 2 minutes. After thawing was completed, the vial was sprayed with 70% ethanol and transferred to a biosafety cabinet.
A wide-bore pipette tip was used to transfer hepatocytes into 50 mL conical tube containing thawing medium. The 50 mL conical tube was placed into a centrifuge and spun at 100 g for 10 minutes. Upon completion of spin, the thawing medium was aspirated and the hepatocytes were resuspended in enough incubation medium to yield ˜1.5×10^6 cells/mL.
Using AOPI staining solution, cells were counted and the viable cell density was determined. Cells with poor viability (<75% viability) are not acceptable for use. […]
All calculations were carried out using Microsoft Excel. Peak areas were determined from extracted ion chromatograms. […]
The in vitro half-life (in vitro t1/2) was determined from the slope value: in vitro t1/2=0.693/k

| Structure (SMILES) | AUClast/D ([1]; IV 1 mg/kg) | AUC—% Extrap—obs ([1]; IV 1 mg/kg) [%] | Cl_obs ([1]; IV 1 mg/kg) [mL/min/kg] | AUClast/D ([1]; PO 5 mg/kg) | AUC—% Extrap—obs ([1]; PO 5 mg/kg) [%] | F ([1]; PO 5 mg/kg) [%] | AUC(0-inf) ([1]; plasma, IV 1 mg/kg) [ng·h/mL] | C0 ([1]; plasma, IV 1 mg/kg) [ng/mL] | half-life ([1]; plasma, IV 1 mg/kg) [h] | MRT inf ([1]; plasma, IV 1 mg/kg) [h] | Vd ([1]; plasma, IV 1 mg/kg) [L/kg] | AUC(0-inf) ([1]; plasma, PO 5 mg/kg) [ng·h/mL] | AUC(0-t) ([1]; plasma, PO 5 mg/kg) [ng·h/mL] | Cmax ([1]; plasma, PO 5 mg/kg) [ng/mL] | Tmax ([1]; plasma, PO 5 mg/kg) [h] | half-life ([1]; plasma, PO 5 mg/kg) [h] | MRT inf ([1]; plasma, PO 5 mg/kg) [h] | Hepatocyte stability, Dog [3] | other results |
| --- | --- | --- | --- | --- | --- | --- | --- | --- | --- | --- | --- | --- | --- | --- | --- | --- | --- | --- | --- |
| CC(C)(C)NC[C@H](O)c1cccc(C(F)(F)F)n1 [Compound 03-3] | 546 | 1.14 | 30.2 | 845 | 0.0970 | 153 | 552 | 388 | 1.28 | 1.61 | 2.92 | 4230 | 4220 | 818 | 1.17 | 2.44 | 3.93 | 5.3 μL/min/10^6 cells | AUC(0-t) ([1]; in vivo, IV 1 mg/kg): 546 ng·h/mL; concentration at 100 min ([2]; CSF, po, 5 mg/kg, read-out: Concentration, CSF): 302 ng/mL; concentration at 100 min ([2]; brain, po, 5 mg/kg, read-out: Concentration, Brain): 988 ng/g; concentration at 100 min ([2]; plasma, po, 5 mg/kg, read-out: Concentration, Plasma): 557 ng/mL |
| CC(C)(C)NC[C@H](O)c1cccc(C#N)n1 [Compound 03-5, (S)-6-(2-(tert-butylamino)-1-hydroxyethyl)picolinonitrile] | 461 | 0.457 | 37.3 | 450 | 4.10 | 101 | 463 | 468 | 0.644 | 0.873 | 1.89 | 2340 | 2250 | 717 | 0.75 | 1.61 | 2.62 | 5.94-7.63 μL/min/10^6 cells | AUC(0-t) ([1]; plasma, IV 1 mg/kg): 461 ng·h/mL; concentration at 100 min ([2]; CSF, read-out: Concentration, CSF): 621 ng/mL; concentration at 100 min ([2]; brain, read-out: Concentration, Brain): 989 ng/g; concentration at 100 min ([2]; plasma, read-out: Concentration, Plasma): 1340 ng/mL |
| Cc1ncccc1[C@@H](O)CNC(C)(C)C [Compound 03-115] |  |  | 103 |  |  | 23 |  |  |  |  |  |  |  |  |  |  |  | 8.13 μL/min/10^6 cells | AUC(0-inf) ([1]; in vivo, IV 1 mg/kg): 164 ng·h/mL; C0 ([1]; in vivo, IV 1 mg/kg): 512 ng/mL; half-life ([1]; in vivo, IV 1 mg/kg): 0.36 h; Vd ([1]; in vivo, IV 1 mg/kg): 2.4 L/kg; AUC(0-inf) ([1]; in vivo, PO 5 mg/kg): 192 ng·h/mL; Cmax ([1]; in vivo, PO 5 mg/kg): 174 ng/mL; Tmax ([1]; in vivo, PO 5 mg/kg): 0.25 h; half-life ([1]; in vivo, PO 5 mg/kg): 1.61 h; MRT inf ([1]; in vivo, PO 5 mg/kg): 1.06 h; concentration at 60 min ([2]; read-out: Concentration, Brain): 280 ng/g; concentration at 60 min ([2]; read-out: Concentration, CSF): 157 ng/mL; concentration at 60 min ([2]; read-out: Concentration, Plasma): 270 ng/mL |

Reference: patent US10947196B2, “Beta adrenergic agonist and methods of using the same” (CURASEN THERAPEUTICS, INC., priority 2019, dated 2021)
